Laboratory results published in patent publication US11505528B2, “Inhibitors of microbially induced amyloid” (Axial Therapeutics, Inc., priority 2017, dated 2022).
Entries after “also recorded” stand apart in the source; their conditions may differ. Where two headings read alike, the source gives them in different places.

Tests used:
[1] = target: T1, human α-synuclein (Homo sapiens, UniProt P37840); assay: Thioflavin T cell-free assay of α-synuclein aggregation; format: biochemical; conditions: α-synuclein 50 μM, compounds at 20-50 μM, data from 36 hours; for Inhibition of Aggregation, αSyn: ThT fluorescence, negative = potentiation
T1 construct: the full-length gene for untagged human α-synuclein was inserted; made in house; host or cells: E. coli BL21 (DE3)

[2] = target: T2, α-synuclein seeded by E. coli CsgA (Homo sapiens, UniProt P37840); assay: Thioflavin T cell-free assay of CsgA-seeded α-synuclein aggregation; format: biochemical
T2 construct: the full-length gene for untagged human α-synuclein was inserted; made in house; host or cells: α-synuclein: E. coli BL21 (DE3); CsgA: E. coli NEB 3016 slyD::kan

[3] = target: T3, E. coli CsgA (Escherichia coli, UniProt P28307); assay: Thioflavin T cell-free assay of CsgA aggregation; format: biochemical
T3 construct: 6xHis (C); made in house; host or cells: E. coli NEB 3016 slyD::kan
T3 sequence (P28307 23-151): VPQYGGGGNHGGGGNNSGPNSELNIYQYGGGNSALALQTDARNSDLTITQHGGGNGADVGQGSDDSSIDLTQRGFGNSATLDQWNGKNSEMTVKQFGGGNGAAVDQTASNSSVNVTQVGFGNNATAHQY

[4] = test system: Thy1-αSyn mice (ASO) mono-colonized with WT E. coli; assay: Motor function of germ-free Thy1-αSyn (ASO) mice mono-colonized with WT E. coli, EGCG in drinking water; format: in vivo
[5] = test system: αSyn aggregates; assay: αSyn aggregates in brain of ASO mice mono-colonized with WT E. coli, EGCG in drinking water; format: in vivo
[6] = read-out: Inhibition of Aggregation, CsgA-seeded αSyn
[7] = read-out: Inhibition of Aggregation, CsgA-seeded αSyn (compound activity range)
[8] = read-out: Inhibition of Aggregation, CsgA
[9] = read-out: Inhibition of Aggregation, CsgA (compound activity range)
[10] = 15-16 weeks of age, EGCG ad lib in drinking water, vs vehicle treated control

Compound: COc1cc(NC(=O)c2c[nH]c3cc(OC)c(OC)c(OC)c3c2=O)cc(OC)c1OC [Compound 19, 5,6,7-trimethoxy-4-oxo-N-(3,4,5-trimethoxyphenyl)-1,4-dihydroquinoline-3-carboxamide]
- Inhibition of Aggregation, αSyn [1]: 29%
- Inhibition of Aggregation, αSyn (compound activity range) [1]: (+) ((+) is between 10% to 30% inhibition)
- inhibition at 50 µM [2, 6]: 14%
- inhibition at 50 µM [2, 7]: 10 to 30%
- inhibition at 20 µM [3, 8]: 18%
- inhibition at 20 µM [3, 9]: 10 to 30%

Compound: O=C(Nc1cc(O)c(O)c(O)c1)c1c[nH]c2cc(O)c(O)c(O)c2c1=O [Compound 20, 5,6,7-trihydroxy-4-oxo-N-(3,4,5-trihydroxyphenyl)-1,4-dihydroquinoline-3-carboxamide]
- inhibition at 50 µM [2, 6]: 11%
- inhibition at 50 µM [2, 7]: 10 to 30%
- inhibition at 20 µM [3, 8]: 61%
- inhibition at 20 µM [3, 9]: > 60%

Compound: O=C(O[C@@H]1Cc2c(O)cc(O)cc2O[C@@H]1c1cc(O)c(O)c(O)c1)c1cc(O)c(O)c(O)c1 [EGCG, epigallocatechin gallate]
- beam traversal time (time to cross) [4, 10]: lower
- hindlimb clasping score [4, 10]: lower
- nasal adhesive removal time (time to remove) [4, 10]: lower
- pole descent time (time to descent) [4, 10]: lower
- wire hang test (time to fall) [4, 10]: higher
- progressive motor deficits exacerbated by E. coli ([4]; assessment of motor performance, EGCG treatment): dampens
- αSyn aggregation in the striatum and midbrain ([5]; EGCG treatment): preventing
- Proteinase K resistant αSyn aggregates in the substantia nigra ([5]; immunofluorescence microscopy, EGCG-treated vs vehicle/untreated controls): lower; also recorded: Fewer

Compound: O=C(Nc1cccc(O)c1)c1c[nH]c2cc(O)cc(O)c2c1=O [Compound 48, 5,7-dihydroxy-N-(3-hydroxyphenyl)-4-oxo-1,4-dihydroquinoline-3-carboxamide]
- Inhibition of Aggregation, αSyn [1]: 37%
- Inhibition of Aggregation, αSyn (compound activity range) [1]: (++) ((++) is between 30% to 60% inhibition)
- inhibition at 50 µM [2, 6]: > 90%
- inhibition at 50 µM [2, 7]: > 60%
- inhibition at 20 µM [3, 8]: -2%
- inhibition at 20 µM [3, 9]: -10 to 10%

Compound: O=C(Nc1sc2c(c1C(=O)Nc1cc(O)c(O)c(O)c1)CCCC2)c1cc(O)c(O)c(O)c1 [Compound 2, 2-(3,4,5-trihydroxybenzamido)-N-(3,4,5-trihydroxyphenyl)-4,5,6,7-tetrahydrobenzo[b]thiophene-3-carboxamide]
- Inhibition of Aggregation, αSyn [1]: 93%
- Inhibition of Aggregation, αSyn (compound activity range) [1]: (+++) ((+++) is greater than 60% inhibition)
- inhibition at 50 µM [2, 6]: 63%
- inhibition at 50 µM [2, 7]: > 60%
- inhibition at 20 µM [3, 8]: 45%
- inhibition at 20 µM [3, 9]: 30 to 60%

Compound: O=C(Nc1ccccc1)c1c[nH]c2cc(O)cc(O)c2c1=O [Compound 27, 5,7-dihydroxy-4-oxo-N-phenyl-1,4-dihydroquinoline-3-carboxamide]
- Inhibition of Aggregation, αSyn [1]: 49%
- Inhibition of Aggregation, αSyn (compound activity range) [1]: (++) ((++) is between 30% to 60% inhibition)
- inhibition at 50 µM [2, 6]: 79%
- inhibition at 50 µM [2, 7]: > 60%
- inhibition at 20 µM [3, 8]: 44%
- inhibition at 20 µM [3, 9]: 30 to 60%

Compound: CN(C(=O)c1c[nH]c2cc(O)cc(O)c2c1=O)c1cc(O)c(O)c(O)c1 [Compound 42, 5,7-dihydroxy-N-methyl-4-oxo-N-(3,4,5-trihydroxyphenyl)-1,4-dihydroquinoline-3-carboxamide]
- Inhibition of Aggregation, αSyn [1]: 98%
- Inhibition of Aggregation, αSyn (compound activity range) [1]: (+++) ((+++) is greater than 60% inhibition)
- inhibition at 50 µM [2, 6]: > 90%
- inhibition at 50 µM [2, 7]: > 60%
- inhibition at 20 µM [3, 8]: 114%
- inhibition at 20 µM [3, 9]: > 60%

Compound: COc1cc(OC)c2c(=O)c(C(=O)Oc3cc(OC)c(OC)c(OC)c3)c[nH]c2c1 [Compound 24, 3,4,5-trimethoxyphenyl 5,7-dimethoxy-4-oxo-1,4-dihydroquinoline-3-carboxylate]
- inhibition at 50 µM [2, 6]: -27%
- inhibition at 50 µM [2, 7]: < -10%
- inhibition at 20 µM [3, 8]: -1%
- inhibition at 20 µM [3, 9]: -10 to 10%

Compound: O=C(Nc1cc(O)c(O)c(O)c1)c1c(-c2cc(O)c(O)c(O)c2)[nH]c2cc(O)c(O)c(O)c2c1=O [Compound 44, 5,6,7-trihydroxy-4-oxo-N,2-bis(3,4,5-trihydroxyphenyl)-1,4-dihydroquinoline-3-carboxamide]
- Inhibition of Aggregation, αSyn [1]: 98%
- Inhibition of Aggregation, αSyn (compound activity range) [1]: (+++) ((+++) is greater than 60% inhibition)
- inhibition at 50 µM [2, 6]: > 90%
- inhibition at 50 µM [2, 7]: > 60%
- inhibition at 20 µM [3, 8]: 64%
- inhibition at 20 µM [3, 9]: > 60%

Compound: O=C(Nc1sc2c(c1C(=O)Nc1cc(O)cc(O)c1)CCCC2)c1cc(O)c(O)c(O)c1 [Compound 6, N-(3,5-dihydroxyphenyl)-2-(3,4,5-trihydroxybenzamido)-4,5,6,7-tetrahydrobenzo[b]thiophene-3-carboxamide]
- Inhibition of Aggregation, αSyn [1]: 36%
- Inhibition of Aggregation, αSyn (compound activity range) [1]: (++) ((++) is between 30% to 60% inhibition)
- inhibition at 50 µM [2, 6]: > 90%
- inhibition at 50 µM [2, 7]: > 60%
- inhibition at 20 µM [3, 8]: 40%
- inhibition at 20 µM [3, 9]: 30 to 60%

Compound: COc1cc(NC(=O)c2c(N)sc3c2CCCC3)cc(OC)c1OC [Compound 14, 2-amino-N-(3,4,5-trimethoxyphenyl)-4,5,6,7-tetrahydrobenzo[b]thiophene-3-carboxamide]
- Inhibition of Aggregation, αSyn [1]: 3%
- Inhibition of Aggregation, αSyn (compound activity range) [1]: (−) ((−) is between −10% to 10% inhibition)
- inhibition at 50 µM [2, 6]: 74%
- inhibition at 50 µM [2, 7]: > 60%

Compound: COc1cc(OC(=O)c2c[nH]c3cc(OC)c(OC)c(OC)c3c2=O)cc(OC)c1OC [Compound 23, 3,4,5-trimethoxyphenyl 5,6,7-trimethoxy-4-oxo-1,4-dihydroquinoline-3-carboxylate]
- inhibition at 50 µM [2, 6]: -22%
- inhibition at 50 µM [2, 7]: < -10%
- inhibition at 20 µM [3, 8]: -4%
- inhibition at 20 µM [3, 9]: -10 to 10%

Compound: COc1cc2[nH]cc(C(=O)Nc3cccc(O)c3)c(=O)c2c(OC)c1OC [Compound 28, N-(3-hydroxyphenyl)-5,6,7-trimethoxy-4-oxo-1,4-dihydroquinoline-3-carboxamide]
- Inhibition of Aggregation, αSyn [1]: 20%
- Inhibition of Aggregation, αSyn (compound activity range) [1]: (+) ((+) is between 10% to 30% inhibition)
- inhibition at 50 µM [2, 6]: < -50%
- inhibition at 50 µM [2, 7]: < -10%
- inhibition at 20 µM [3, 8]: -6%
- inhibition at 20 µM [3, 9]: -10 to 10%

Compound: COc1cc(OC)c2c(=O)c(C(=O)Nc3ccccc3)c[nH]c2c1 [Compound 25, 5,7-dimethoxy-4-oxo-N-phenyl-1,4-dihydroquinoline-3-carboxamide]
- Inhibition of Aggregation, αSyn [1]: 17%
- Inhibition of Aggregation, αSyn (compound activity range) [1]: (+) ((+) is between 10% to 30% inhibition)
- inhibition at 20 µM [3, 8]: -150%
- inhibition at 20 µM [3, 9]: < -10%

Compound: COc1cc(OC)c2c(=O)c(C(=O)Nc3cccc(O)c3)c[nH]c2c1 [Compound 26, N-(3-hydroxyphenyl)-5,7-dimethoxy-4-oxo-1,4-dihydroquinoline-3-carboxamide]
- Inhibition of Aggregation, αSyn [1]: 24%
- Inhibition of Aggregation, αSyn (compound activity range) [1]: (+) ((+) is between 10% to 30% inhibition)
- inhibition at 50 µM [2, 6]: < -50%
- inhibition at 50 µM [2, 7]: < -10%
- inhibition at 20 µM [3, 8]: 8%
- inhibition at 20 µM [3, 9]: -10 to 10%

Compound: O=C(Nc1cccc(O)c1)c1c[nH]c2cc(O)c(O)c(O)c2c1=O [Compound 32, 5,6,7-trihydroxy-N-(3-hydroxyphenyl)-4-oxo-1,4-dihydroquinoline-3-carboxamide]
- Inhibition of Aggregation, αSyn [1]: 48%
- Inhibition of Aggregation, αSyn (compound activity range) [1]: (++) ((++) is between 30% to 60% inhibition)
- inhibition at 50 µM [2, 6]: > 90%
- inhibition at 50 µM [2, 7]: > 60%
- inhibition at 20 µM [3, 8]: 53%
- inhibition at 20 µM [3, 9]: 30 to 60%

Compound: COc1cc(OC)c2c(=O)c(C(=O)Nc3cc(OC)c(OC)c(OC)c3)c[nH]c2c1 [Compound 21, 5,7-dimethoxy-4-oxo-N-(3,4,5-trimethoxyphenyl)-1,4-dihydroquinoline-3-carboxamide]
- Inhibition of Aggregation, αSyn [1]: −1%
- Inhibition of Aggregation, αSyn (compound activity range) [1]: (−) ((−) is between −10% to 10% inhibition)
- inhibition at 20 µM [3, 8]: 4%
- inhibition at 20 µM [3, 9]: -10 to 10%
